Source: article PMC11840605, “Crystallographic and Thermodynamic Evidence of Negative Coupling in the Flavin-Dependent Tryptophan Halogenases AbeH and BorH” (ACS Omega, 2025)
Entries after “also recorded” stand apart in the source; their conditions may differ.

Columns and labels:
AbeH/Trp [1] = target: T1, AbeH/Trp (uncultured bacterium, UniProt F6LWA5); test: FAD fluorescence quenching titration with AbeH preincubated with Trp; type: binding, uncultured soil actinomycetes
Protocol: Quenching of FAD fluorescence quenching upon binding to AbeH was measured in the absence and presence of Trp in 20 mM Tris-HCl pH 8.0 and 100 mM NaCl using a Quantmaster 40 fluorimeter (Photon Technologies International). Trp and FAD solutions were prepared in 20 mM Tris-HCl pH 8, and concentrations were determined by absorbance at 280 and 450 nm, respectively. FAD fluorescence was measured using excitation at 450 nm (4 nm slit opening) and emission set at 525 nm (6 nm slit opening) using a fluorescence cuvette to collect 50 scans, which were averaged later during data processing in Microsoft Excel. […] Raw fluorescence intensities were corrected for the buffer, Trp, and AbeH background contributions. Quenched fluorescence intensity was plotted vs AbeH concentration and fit to eq 1 using GraphPad Prism 8.0 by nonlinear regression analysis. In eq 1, F = fractional saturation, ΔF = fluorescence quenching upon AbeH/FAD complex formation (calculated from the difference of FAD fluorescence intensity at different AbeH concentration), ΔFmax = maximum fluorescence change obtained from fit, [AbeHFAD] = FAD-bound AbeH, [AbeH]T = Total AbeH concentration, [FAD]T = Total FAD concentration, KD = equilibrium dissociation constant. […]
A. Fluorescence quenching observed from binding of Apo-AbeH ([…]) to […] FAD; […]

AbeH/Trp [2] = target: T1, AbeH/Trp; test: Isothermal titration calorimetry, FAD into AbeH preincubated with Trp; type: binding, uncultured soil actinomycetes; design: n (ITC, Table S3) / DH (ΔH, ITC, Table S3) / -TDS (-TΔS, ITC, Table S3) / DG (ΔG, ITC, Table S3): unit of the concentration uncertain
Protocol: ITC experiments were performed using a VP-ITC isothermal titration calorimeter (MicroCal) in 20 mM HEPES pH 7.5, 350 mM NaCl, 1 mM ethylenediamine tetraacetic acid (EDTA) and 15% (v/v) glycerol. Solutions of AbeH, BorH, FAD (Chem-Implex), and Trp (Acros Organics) were prepared in the same buffer and degassed under vacuum at 30 °C for 20 min before loading in the syringe or cell. To analyze formation of binary complexes, AbeH or BorH was placed inside the cell, and ligand (FAD or Trp) was injected. For ternary complex titration, one ligand was preincubated with the macromolecule for 30 min at 30 °C to form binary complexes of AbeH/FAD, AbeH/Trp, BorH/FAD, and BorH/Trp before titrating with the second ligand. To test FADH2 binding to AbeH and BorH, FAD was reduced to FADH2 using sodium dithionite and stored under N2. Formation of FADH2 by sodium dithionite was verified using absorbance and fluorescence spectrophotometry.
ITC experiments were performed with reference power set to 10 μcal/s and Milli-Q water in the reference cell. All experiments were done with a pretitration delay of 20 min, a 5 min interval between injections, and a filter period of 2 s in high feedback gain mode. All experiments were performed at 310 rpm to mix the components in cell and titrant. All other VP-ITC instrumental parameters were set to default settings. Heats of dilution for all titrants were measured by titrating ligand into buffer for binary complex titrations, and by titrating ligand into a solution containing the other ligand but no protein for ternary complex titration.
190 μM FAD (2 μL/1 and 15 μL/29 injections) into 28 μM AbeH preincubated with 16 mM Trp (Figure 4C)
190 μM FAD (2 μL/1 and 15 μL/29 injections) into 28 μM AbeH preincubated with 28 mM Trp (Figure S8)
Titrations were analyzed by manually integrating each injection, subtracting the heat of dilution, and carrying out nonlinear least-squares fit of the calorimetric binding data to a one-site model using Origin 7.0 (Origin Lab). Trp binding experiments were subtracted by point-by-point heat of dilution, and FAD and FADH2 binding experiments were subtracted using the mean heat of the last three injections. For the Trp binding data, n was fixed to 1 based on expected stoichiometry of 1:1 based on FDH crystal structures and as proposed for lower c-value titrations in the literature.[23],[25],[82] The other parameters were not constrained during fitting.

[3] = cell AbeH/Trp (16 (unit uncertain))
[4] = cell AbeH/Trp (28 (unit uncertain))

T1 sequence (F6LWA5 entry or part of it): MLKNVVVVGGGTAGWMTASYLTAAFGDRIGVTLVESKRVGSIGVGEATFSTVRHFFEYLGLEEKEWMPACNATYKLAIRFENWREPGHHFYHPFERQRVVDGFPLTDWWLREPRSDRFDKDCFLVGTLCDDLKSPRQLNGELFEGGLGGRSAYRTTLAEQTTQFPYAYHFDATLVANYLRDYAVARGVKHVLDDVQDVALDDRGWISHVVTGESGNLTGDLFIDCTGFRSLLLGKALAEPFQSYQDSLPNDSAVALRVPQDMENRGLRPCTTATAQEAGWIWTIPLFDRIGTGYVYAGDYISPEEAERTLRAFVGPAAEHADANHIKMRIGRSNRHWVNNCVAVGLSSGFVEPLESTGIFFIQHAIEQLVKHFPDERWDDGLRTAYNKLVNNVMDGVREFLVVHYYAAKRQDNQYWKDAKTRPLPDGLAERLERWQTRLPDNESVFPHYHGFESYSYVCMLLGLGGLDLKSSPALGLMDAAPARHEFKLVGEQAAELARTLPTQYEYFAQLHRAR

Cc1cc2nc3c(=O)[nH]c(=O)nc-3n(C[C@H](O)[C@H](O)[C@H](O)COP(=O)(O)OP(=O)(O)OC[C@H]3O[C@@H](n4cnc5c(N)ncnc54)[C@H](O)[C@@H]3O)c2cc1C [FAD]
Kd (AbeH/Trp [1]; AbeH/FAD KD, FAD fluorescence quenching (Figure S10 B), in the presence of 0.3 mM Trp): 3.1 µM | Kd (AbeH/Trp [1]; KD, FAD binding to AbeH/Trp, FAD fluorescence, AbeH preincubated with Trp): 7.7 ± 2.2 µM | Kd (AbeH/Trp [2]; Apparent KD, FAD binding to AbeH/Trp, ITC, AbeH preincubated with Trp, depends on the Trp:AbeH molar ratio): 6.3 ± 2.4 µM | Heat of binding, titration of FAD into AbeH/Trp, in words (AbeH/Trp [2]; ITC): endothermic; also recorded: heat being absorbed rather than released | Kd (AbeH/Trp [2]; KD, FAD into AbeH/Trp, ITC, experiment of Figure 4C, 28 μM AbeH preincubated with 16 mM Trp): 2.1 µM | -TDS (-TΔS, ITC, Table S3) (AbeH/Trp [2]; [3]): -15.1 kcal/mol | DG (ΔG, ITC, Table S3) (AbeH/Trp [2]; [3]): -7.8 kcal/mol | DH (ΔH, ITC, Table S3) (AbeH/Trp [2]; [3]): 7.3 ± 0.4 kcal/mol | n (ITC, Table S3) (AbeH/Trp [2]; [3]): 0.58 ± 0.02 | -TDS (-TΔS, ITC, Table S3) (AbeH/Trp [2]; [4]): -13.1 kcal/mol | DG (ΔG, ITC, Table S3) (AbeH/Trp [2]; [4]): -7.2 kcal/mol | DH (ΔH, ITC, Table S3) (AbeH/Trp [2]; [4]): 5.9 ± 1.6 kcal/mol | n (ITC, Table S3) (AbeH/Trp [2]; [4]): 0.6 ± 0.1
